In one test the test system is primary murine T cells. Nature of the test: Gene expression of pro-inflammatory cytokines (RT-qPCR) in primary murine T cells. The format is cell-based, C57BL/6 mice. The conditions noted are these: RT-qPCR. The source says: Cells were activated with PMA/Ionomycin and treated with PBS, α-MSH, K(D)PT and Examples 3, 8 and 9, respectively, at a concentration of 10^−9 M. Values are normalized to β-actin and are shown relative to the gene expression in PBS-stimulated cells.
Primary T-cells were isolated from peripheral blood from healthy volunteers and from secondary lymphatic organs from naïve C57BL/6 mice, respectively. The cells were stimulated with phorbol-12-myristate-13-acetate (PMA)/Ionomycin and interferon-gamma (IFN-γ), respectively, for 48 h to activate the cells. The activated cells release pro-inflammatory cytokines. In parallel a human (HaCaT) keratinocyte cell line was activated with PMA/Ionomycin and IFN-γ, respectively, too. […] At the same time release of anti-inflammatory IL-10 was inhibited. Two days after addition of PMA/Ionomycin and IFN-γ, respectively, the induction of IL-1 secretion was determined in the supernatant for proving that the cells are activated. […] The anti-inflammatory properties of the tripeptides were determined 48 h and 72 h following stimulation. A 13-plex-system based FACS analysis was used for showing the reduced secretion of pro-inflammatory cytokines in the supernatant. Data for IL-1, IL-2, IL-6, IL-12p70 IL-17, IFN-γ and TNF-α are considered to be most relevant. Thus, analysis of the anti-inflammatory properties of the tripeptides is preferably based on the results obtained for these analytes. […] Using this method the gene expression of pro-inflammatory markers like IL-6, IL-17, IFN-γ and TNF-α was determined.
In a third experiment murine and human T cells and HaCaT cells were stimulated with PMA/Ionomycin and treated with Examples 14, 15, 16 and 17 at 10^−7 M, 10^−9 M and 10^−11 M. Cytokine concentrations (IFN-γ, IL-17 and IL-10 for T cells and IFN-γ for HaCat) were assessed in the supernatants using the Luminex technology. Expression of genes coding for Il-1β, IL-6 and TNF-α was determined. […] Moreover, concentrations of pro-inflammatory cytokines IFN-γ and IL-17 was reduced in the supernatants whereas the concentration of anti-inflammatory cytokine IL-10 was increased.
(In qPCR the cycle at which signal appears reflects the starting amount.)

In another test the test system is Balb/c mice. Nature of the test: Imiquimod-induced psoriasis in mice. Particulars: i.v. Type of test: in vivo. As to the method:
Psoriasis in Balb/c mice is induced by daily application of topical Imiquimod for 8 days. Animal are treated with the test items (topical or systemically). On day 9 the skin phenotype is characterized using a clinical score system (0=normal mouse skin; 1=mild reddening; 2=erythema; 3=erythema, swelling; 4=erythema, swelling, scaling; 5=erythema, swelling, scaling, (bloody) lesions). Skin is analyzed histologically. Lymph nodes are analyzed by flow cytometry and RT-qPCR. mRNA expression in lesional skin is analyzed by RT-qPCR. Cytokine concentrations in the serum are assessed using the Luminex technology.

[ ]: non-standard residue; d: D form. Aib = CC(C)(N)C(=O)O

In the case of H-Phe-Pro-[Aib]-OH [Example 13], the “mRNA expression of IL-6, IL-17, IFN-γ and TNF-α” value in the test on primary murine T cells is on record as “reduced expression”. Moreover, in the test on Balb/c mice, the “concentrations of TNF-α and IL-17 in the serum” value was “reduced”; the “mRNA expression of IL-17, IFN-γ, IL-23, IL-36 and IL-22 in lesional skin” value is given as “reduced”. Moreover, the “size of the rete ridges” value in the test with Balb/c mice (compared to vehicle control) was “decreased”. Further, the clinical score result in the test with Balb/c mice (day 9) is recorded as “reduced”.

The record behind these values is patent US10954269B2, “Anti-inflammatory tripeptides” (Dr. August Wolff Gmbh & Co. KG Arzneimittel, priority 2013, dated 2021).
